Measurements published in patent US12128044B2, “Fused tricyclic compounds and uses thereof in medicine” (SUNSHINE LAKE PHARMA CO., LTD., priority 2018, dated 2024).

Legend:
HBV DNA replication = assay: Inhibition of HBV virus replication (HBV DNA in supernatant, qPCR) in HepG2.2.15 cells; format: cell-based; conditions: Hepatitis B virus, 10 days treatment, supernatant day 11, qPCR
Source text: (§1) The chromosome of HepG2.2.15 cells integrates a complete HBV genome and stably expresses viral RNA and protein. HepG2.2.15 cells can secrete mature hepatitis B virus particles and HBsAg into culture medium. Virus particles DNA and HBsAg secreted by HepG 2.2.15 cells can be quantified by q-PCR and ELISA, and the effects of compounds on viral replication and HBsAg secretion can be detected.
(§2) HepG 2.2.15 cells were inoculated with 8,000 per cell to 96-well cell culture plates in duplicate, and were cultured for 3 days until the cells grew to full-hole. Cells were treated with 4-fold serial dilutions of compounds for 10 days, and were given alternately every other day. The final concentration of DMSO in all pores was 0.5% and DMSO was used as a drug-free control. The supernatant was collected for quantitative detection of HBV DNA on day 11.
Viral genomic DNA was detected by qPCR method, and HBV primers were as follows: • HBV-For-202, […] (SEQ ID NO:1); • HBV-Rev-315, […](SEQ ID NO:2).
The SYBR Premix Ex Taq II-Takara DRR081S kit was used, and 1 μL of cell culture supernatant was used as a template. A standard curve was made using a plasmid containing the HBV genome, and the viral copy number was calculated using the standard curve. Concentration-virus copy number was processed using Graphpad Prism 5 software, and IC50 of Compounds Inhibiting Virus Replication was calculated by Four-parameter Nonlinear Regression Model.

HBsAg secretion = assay: Inhibition of HBsAg secretion (ELISA) in HepG2.2.15 cells; format: cell-based; conditions: Hepatitis B virus, HepG2.2.15, read-out: Hbs Ag IC50
Source text: as §1
as §2, with “HBsAg” for “HBV DNA”
The level of HBsAg secreted by the compound after treatment is detected by ELISA method, and the method uses a hepatitis B surface antigen diagnostic kit (Shanghai Kehua Biotech Co., Ltd. S10910113). 25 μL of the supernatant to be assayed (PBS was diluted to 75 μL) was added to per well of the ELISA plate, positive control and negative control kit were set. ELISA plate was blocked with a cover paper, and incubated at 37° C. for 60 minutes. The ELISAplate was taken out, the seal was teared off, and 50 μL of enzyme conjugate was added to each well. The ELISA plate was oscillated on the shaker for 10 seconds, blocked with a cover paper and incubated at 37° C. for 30 minutes. The ELISA plate was taken out, the seal was teared off, and the ELISA plate was washed 5 times: each time the liquid in the hole was discarded, the washing liquid was filled into the holes, left to stand for 60 seconds, dried, and the liquid residue was patted on the absorbent paper. Immediately after the end of washing, a freshly prepared mixture of Developer A and Developer B was added to all wells: 100 μL per well. The ELISA plate was oscillated on the shaker for 10 seconds, blocked with a cover paper and incubated at 37° C. for 30 minutes. 50 μL of stop solution was added to all wells. Absorbance was read on the Envision plate reader at 450 nm. Concentration-HBsAg OD450 was processed using Graphpad Prism 5 software, and IC50 of Compounds Inhibiting Virus Replication was calculated by Four-parameter Nonlinear Regression Model.

[1] = Pharmacokinetic experiments in beagle dogs; format: in vivo
Procedure: Pharmacokinetic experiments of the compounds of the invention in beagle dogs (Body weight 10-12 kg, male, age 10-12 months, 3 per oral group, 3 per intravenous injection group) Test method:
Beagle was administered orally with 2.5 mg/kg or 5 mg/kg of the compound tested or intravenously injected with 1 mg/kg or 2 mg/kg of the compound tested.
After administration, venous blood was collected at time points (0.083, 0.25, 0.5, 1, 2, 4, 6, 8 and 24 hours) and collected in an anticoagulation tube with EDTA-K2. After liquid-liquid extraction, plasma samples were quantitatively analyzed by multiple reaction ion monitoring (MRM) on a triple quadrupole tandem mass spectrometer. Pharmacokinetic parameters were calculated using a noncompartmental method by WinNonLin 6.3 software.

SMILES	IC50 (HBV DNA replication)	IC50 (HBsAg secretion)	further results
COc1cc2c(cc1-c1ccco1)CN(C(C)C)n1cc(C(=O)O)c(=O)cc1-2 [Example 1, 9-(furan-2-yl)-6-isopropyl-10-methoxy-2-oxo-6,7-dihydro-2H-pyrido[2,1-a]phthalazine-3-carb oxylic acid]	2.68 nM	4.27 nM	–
COc1cc2c(cc1-c1cccs1)CN(C(C)C)n1cc(C(=O)O)c(=O)cc1-2 [Example 2, 6-isopropyl-10-methoxy-2-oxo-9-(thiophen-2-yl)-6,7-dihydro-21H-pyrido[2,1-a]phthalazine-3-carboxylic acid]	2.06 nM	1.72 nM	–
COc1cc2c(cc1-c1nccs1)CN(C(C)C)n1cc(C(=O)O)c(=O)cc1-2 [Example 3, 6-isopropyl-10-methoxy-2-oxo-9-(thiazol-2-yl)-6,7-dihydro-2H-pyrido[2,1-a]phthalazine-3-carboxylic acid]	1.71 nM	3.26 nM	–
COc1cc2c(cc1-c1cnn(C(C)C)c1)CN(C(C)C)n1cc(C(=O)O)c(=O)cc1-2 [Example 4, 6-isopropyl-9-(1-isopropyl-1H-pyrazol-4-yl)-10-methoxy-2-oxo-6,7-dihydro-2H-pyrido[2,1-a]phthalazine-3-carboxylic acid]	3.81 nM	9.6 nM	–
COc1cc2c(cc1-c1cnn(C(F)F)c1)CN(C(C)C)n1cc(C(=O)O)c(=O)cc1-2 [Example 5, 9-(1-(difluoromethyl)-1H-pyrazole-4-yl)-6-isopropyl-10-methoxy-2-oxo-6,7-dihydro-2H-pyrido [2,1-a]phthalazine-3-carboxylic acid]	7.3 nM	14.3 nM	F ([1]; PO 5 mg/kg vs IV 1 mg/kg): 76.7%; AUC(0-inf) ([1]; male, dog, plasma, IV, 1 mg/kg): 17400 ng·h/mL; AUC(0-t) ([1]; male, dog, plasma, IV, 1 mg/kg): 16900 ng·h/mL; Cmax ([1]; male, dog, plasma, IV, 1 mg/kg): 2170 ng/mL; clearance ([1]; male, dog, plasma, IV, 1 mg/kg): 0.955 mL/min/kg; AUC(0-inf) ([1]; male, dog, plasma, PO, 5 mg/kg): 66700 ng·h/mL; AUC(0-t) ([1]; male, dog, plasma, PO, 5 mg/kg): 63300 ng·h/mL; Cmax ([1]; male, dog, plasma, PO, 5 mg/kg): 8710 ng/mL
COc1cc2c(cc1-c1cnn(C3CCC(F)(F)CC3)c1)CN(C(C)C)n1cc(C(=O)O)c(=O)cc1-2 [Example 7, 9-(1-(4,4-Difluorocyclohexyl)-1H-pyrazol-4-yl)-6-isopropyl-10-methoxy-2-oxo-6,7-dihydro-2H-pyrido[2,1-a]phthalazine-3-carboxylic acid]	1.76 nM	6.73 nM	–
COc1cc2c(cc1-c1cnn(C3CC(C)(C)OC(C)(C)C3)c1)CN(C(C)C)n1cc(C(=O)O)c(=O)cc1-2 [Example 8, 6-isopropyl-10-methoxy-2-oxo-9-(1-(2,2,6,6-tetramethyltetrahydro-2H-pyran-4-yl)-1H-pyrazole-4-yl)-6,7-dihydro-2H-pyrido[2,1-a]phthalazine-3-carboxylic acid]	6.26 nM	6.03 nM	–
COc1cc2c(cc1-c1cnn(C(C)C)c1)CN(C(C)(C)C)n1cc(C(=O)O)c(=O)cc1-2 [Example 13, 6-(tert-butyl)-9-(1-isopropyl-1H-pyrazol-4-yl)-10-methoxy-2-oxo-6,7-dihydro-2H-pyrido[2,1-a]phthalazine-3-carboxylic acid]	0.7 nM	0.97 nM	–
COc1cc2c(cc1-c1cnn(C(C)C)c1)CN(C1CC1)n1cc(C(=O)O)c(=O)cc1-2 [Example 14, 6-cyclopropyl-9-(1-isopropyl-1H-pyrazol-4-yl)-10-methoxy-2-oxo-6,7-dihydro-2H-pyrido[2,1-a]phthalazine-3-carboxylic acid]	< 0.24 nM	< 0.24 nM	–
COc1cc2c(cc1-c1cnn(C(C)C)c1)CN(C1CCC1)n1cc(C(=O)O)c(=O)cc1-2 [Example 15, 6-cyclobutyl-9-(1-isopropyl-1H-pyrazol-4-yl)-10-methoxy-2-oxo-6,7-dihydro-2H-pyrido[2,1-a]phthalazine-3-carboxylic acid]	2.1 nM	1.83 nM	–
COc1cc2c(cc1-c1cnn(C3CC3)c1)CN(C(C)C)n1cc(C(=O)O)c(=O)cc1-2 [Example 16, 9-(1-cyclopropyl-1H-pyrazole-4-yl)-6-isopropyl-10-methoxy-2-oxo-6,7-dihydro-2H-pyrido[2,1-a]phthalazine-3-carboxylic acid]	2.74 nM	6.11 nM	–
COc1cc2c(cc1-c1cnn(C3CCC3)c1)CN(C(C)C)n1cc(C(=O)O)c(=O)cc1-2 [Example 17, 9-(1-cyclobutyl-1H-pyrazole-4-yl)-6-isopropyl-10-methoxy-2-oxo-6,7-dihydro-2H-pyrido[2,1-a]phthalazine-3-carboxylic acid]	2.82 nM	4.07 nM	–
COc1cc2c(cc1-c1cnn(C3CCCC3)c1)CN(C(C)C)n1cc(C(=O)O)c(=O)cc1-2 [Example 18, 9-(1-cyclopentyl-1H-pyrazole-4-yl)-6-isopropyl-10-methoxy-2-oxo-6,7-dihydro-2H-pyrido [2,1-a]phthalazine-3-carboxylic acid]	2.28 nM	3.73 nM	–
COc1cc2c(cc1-c1cnn(C3CCOCC3)c1)CN(C(C)C)n1cc(C(=O)O)c(=O)cc1-2 [Example 19, 6-isopropyl-10-methoxy-2-oxo-9-(1-(tetrahydro-2H-pyran-4-yl)-1H-pyrazole-4-yl)-6,7-dihydro-2H-pyrido[2,1-a]phthalazine-3-carboxylic acid]	3.98 nM	7.82 nM	–
